Experiment [1] relates to Acinetobacter spp. (n = 104). Type of experiment: cell-based. The settings on record: Acinetobacter spp. (n = 104), CLSI breakpoints. The procedure:
(§1) The clinical isolates were obtained from USA hospitals. […] Plates were incubated at 35° C. overnight.

For experiment [2], the system named is Escherichia coli (n = 101). The experiment is classed as cell-based. The settings on record: Escherichia coli (n = 101), CLSI breakpoints, colistin EUCAST. The procedure: as §1
The test system of experiment [3] is Pseudomonas aeruginosa (n = 109). Type of experiment: cell-based. The settings on record: Pseudomonas aeruginosa (n = 109), CLSI breakpoints. On the procedure: as §1
The subject of experiment [4] is Enterobacter spp. (n = 102). Type of experiment: cell-based, Enterobacter aerogenes and E. cloacae. The settings on record: Enterobacter spp. (n = 102); for % R (isolates resistant): CLSI breakpoints, colistin EUCAST. On the procedure:
as §1

Experiment [5] has as its system Staphylococcus aureus (n = 104). The experiment is described as follows: microbe, parasite or virus in culture. The experiment is classed as cell-based. The conditions noted are these: for % R (isolates resistant): CLSI breakpoints; for MIC range: all methicillin-resistant. On the procedure:
as §1

In experiment [6] the test system is Enterococcus faecium (n = 104). The experiment is described as follows: microbe, parasite or virus in culture. The settings on record: for % R (isolates resistant): CLSI breakpoints. On the procedure:
Comparator antibiotics were supplied by Micromyx, and stock solutions were prepared on the first day of testing using solvents recommended by CLSI (1). Stock solutions of all compounds were made at 40× the final testing concentration and stored at −80° C. prior to testing. Information regarding compound source, catalog and lot number, testing concentrations and drug diluent for the comparators and test agent are detailed below in Table 3.
The test organisms evaluated in this study consisted of clinical isolates from the Micromyx Repository and reference isolates from the American Type Culture Collection (ATCC; Manassas, Va.). The clinical isolates were obtained from USA hospitals. Upon initial receipt at Micromyx, the organisms were sub-cultured onto an appropriate agar medium. Following incubation, colonies were harvested from these plates and cell suspensions prepared and frozen at −80° C. with a cryoprotectant. Prior to testing, the isolates were streaked from frozen vials onto Trypticase Soy Agar with 5% sheep blood (Becton Dickenson [BD]; Sparks, MD; Lot Nos. 7173618, 7166759, 7208688, 72144895, 7228505 and Remel Lenexa, Kans. Lot No. 212574). Plates were incubated at 35° C. overnight.
Mueller Hinton II broth (MHB II; BD; Lot Nos. 6258541 and 7143896) was used for MIC testing of aerobic organisms.
(§2) MIC values were determined using a broth microdilution procedure described by CLSI (1, 3). Automated liquid handlers (Multidrop 384, Labsystems, Helsinki, Finland; Biomek 2000 and Biomek FX, Beckman Coulter, Fullerton Calif.) were used to conduct serial dilutions and liquid transfers.
To prepare the drug mother plates, which would provide the serial drug dilutions for the replicate daughter plates, the wells of columns 2-12 of standard 96-well microdilution plates (Costar 3795) were filled with 150 µl of the designated diluent for each row of drug. The test articles and comparator compounds ([…] at 40× the highest concentration to be tested) were dispensed into the appropriate wells in column 1. The Biomek 2000 was then used to make 2-fold serial dilutions in the mother plates from column 1 through column 11. The wells of Column 12 contained no drug and served as the organism growth control wells for the assay.
(§3) The daughter plates were loaded with 185 g L per well of MHB II using the Multidrop 384. The daughter plates were completed on the Biomek FX instrument which transferred 5 µL of drug solution from each well of a mother plate to the corresponding well of each daughter plate in a single step. A standardized inoculum of each test organism was prepared per CLSI methods (1). The inoculum for each organism was dispensed into sterile reservoirs divided by length (Beckman Coulter), and the Biomek 2000 was used to inoculate the plates. Daughter plates were placed on the Biomek 2000 work surface in reverse orientation so that inoculation took place from low to high drug concentration.
Plates were stacked 3-4 high, covered with a lid on the top plate, placed in plastic bags, and incubated at 35° C. for 16 to 20 hrs. Following incubation, the microplates were removed from the incubator and viewed from the bottom using a plate viewer. […] The MIC was read and recorded as the lowest concentration of drug that inhibited visible growth of the organism.
Clinical breakpoints to determine percent resistance within a given organism group were obtained from CLSI (3), with the exception of colistin for K. pneumoniae, Enterobacter spp., and E. coli, which are only available from EUCAST.

Experiment [7] deals with Acinetobacter baumannii ATCC BAA-1797 (MDR). The experiment is described as follows: microbe, parasite or virus in culture. The experiment is classed as cell-based. The settings on record: ATCCBAA1797; Acinetobacter baumannii ATCC BAA-1797 (MDR); read-out: MIC. On the procedure: Each peptide was formulated in PBS buffer prior to testing. Peptides of SEQ ID NO:5 and SEQ ID NO:8 were brought up in 100% DMSO with 0.002% polysorbate-80 at 1.28 mg/mL (40× the highest final test concentration of 32 mcg/mL). Final test concentration of DMSO was 2.5% in the assay at the first dilution for those two compounds.
Mueller Hinton II broth (MHB II; BD; Lot Nos. 6258541 and 7143896) was used for MIC testing of aerobic organisms. 0.002% polysorbate 80 (P80) was added to the test medium.
as §2
To prepare the drug mother plates, which would provide the serial peptide dilutions for the replicate daughter plates, the wells of columns 2-12 of standard 96-well microdilution plates (Costar 3795) were filled with 150 µl of the designated diluent for each row of peptide.
The test articles and comparator compounds ([…] at 40× the highest concentration to be tested) were dispensed into the appropriate wells in column 1. The Biomek 2000 was then used to make 2-fold serial dilutions in the mother plates from column 1 through column 11. The wells of Column 12 contained no drug and served as the organism growth control wells for the assay.
as §3, with “185 μL” for “185 g L”, “5 uL” for “5 µL”, “of peptide” for “of drug”, “CLSI methods.” for “CLSI methods (1).”
Plates were stacked 3-4 high, covered with a lid on the top plate, placed in plastic bags, and incubated at 35° C. for 16 to 20 hrs. Following incubation, the microplates were removed from the incubator and viewed from the bottom using a plate viewer. […] The MIC was read and recorded as the lowest concentration of peptide that inhibited visible growth of the organism.

Experiment [8] concerns Klebsiella pneumoniae (n = 101). The experiment is classed as cell-based. On the procedure: as §1
Setting [9] is: Staphylococcus aureus (n = 104).
[10] abbreviates: Klebsiella pneumoniae (n = 101), CLSI breakpoints, colistin EUCAST.

This is an account of results in patent US20220249599A1, “TREATMENT OF IMPLANTS WITH ENGINEERED ANTIMICROBIAL AMPHIPHILIC PEPTIDES” (priority 2018, published 2022).

In brackets after ≈: the same amount, converted by molar mass. Like-named read-outs stand apart in the source and are kept apart here.

Take `CC(C)(O/N=C(\C(=O)N[C@@H]1C(=O)N2C(C(=O)[O-])=C(C[n+]3ccccc3)CS[C@H]12)c1csc(N)n1)C(=O)O` [Ceftazidime]: the “% R (isolates resistant)” value in experiment [1] was found to be 61.5%; in experiment [2], 33.6%; in experiment [3] it was 14.6%; in experiment [4] it was 36.3%.

Take `CCC[C@@H]1C[C@@H](C(=O)N[C@@H]([C@H]2O[C@H](SC)[C@H](O)[C@@H](O)[C@H]2O)[C@H](C)Cl)N(C)C1` [Clindamycin]: in experiment [5] (setting [9]), the MIC90 was more than 16 µg/mL and the “% R (isolates resistant)” value was 37.5%.

Take `C[C@H]1c2cccc(O)c2C(=O)C2=C(O)[C@]3(O)C(=O)C(C(N)=O)=C(O)[C@@H](N(C)C)[C@@H]3[C@@H](O)[C@@H]21` [Doxycycline]: the “% R (isolates resistant)” value in experiment [6] (Enterococcus faecium (n = 104)) stood at 25%; in experiment [5] (setting [9]), 0%. The same compound had an MIC range in experiment [5] (setting [9]) of 0.06 to 8 µg/mL.

Consider `C[C@H]1COc2c(N3CCN(C)CC3)c(F)cc3c(=O)c(C(=O)O)cn1c23` [Levofloxacin], for which the MIC in experiment [7] worked out at 4 µg/mL (≈ 11.1 µM). Moreover, the MIC90 in experiment [5] (setting [9]) was more than 8 µg/mL. Also, the “% R (isolates resistant)” value is given as 82.7% in experiment [5] (setting [9]); “Over 80%” in experiment [5] (Staphylococcus aureus (n = 104), listed as levofloxacin); 66.3% in experiment [1]; 46.5% in experiment [2]; approximately 50% in experiment [2] (listed as levofloxacin); “over 60%” in experiment [8]. Moreover, the results for the “% R (isolates resistant)” value in experiment [8] (setting [10]), in experiment [3] and in experiment [4] were 67.3%, 21.1% and 4.9%, respectively.

With `CC(=O)NC[C@H]1CN(c2ccc(N3CCOCC3)c(F)c2)C(=O)O1` [Linezolid], the MIC range in experiment [6] (Enterococcus faecium (n = 104)) was 1 to 32 µg/mL; in experiment [6] (Enterococcus faecium (n = 104), listed as linezolid), 1 to 32 µg/mL; in experiment [5] (setting [9]), 1 to 8 µg/mL. The “% R (isolates resistant)” value is on record as 3.8% in experiment [6] (Enterococcus faecium (n = 104)) and 1.9% in experiment [5] (setting [9]).

Take `NC[C@H]1O[C@H](O[C@H]2[C@H](O)[C@@H](O[C@H]3O[C@H](CO)[C@@H](O)[C@H](N)[C@H]3O)[C@H](N)C[C@@H]2N)[C@H](N)C[C@@H]1O` [Tobramycin]: the “% R (isolates resistant)” value is listed as 49.0% in experiment [1]; 21.7% in experiment [2]; “over 60%” in experiment [8]; 59.4% in experiment [8] (setting [10]); 7.4% in experiment [3]; 3.9% in experiment [4]. This compound also returned an MIC range in experiment [4] of 0.12 to 64 µg/mL.

Regarding `CN[C@H](CC(C)C)C(=O)N[C@H]1C(=O)N[C@@H](CC(N)=O)C(=O)N[C@H]2C(=O)N[C@H]3C(=O)N[C@H](C(=O)N[C@H](C(=O)O)c4cc(O)cc(O)c4-c4cc3ccc4O)[C@H](O)c3ccc(c(Cl)c3)Oc3cc2cc(c3O[C@@H]2O[C@H](CO)[C@@H](O)[C@H](O)[C@H]2O[C@H]2C[C@](C)(N)[C@H](O)[C@H](C)O2)Oc2ccc(cc2Cl)[C@H]1O` [Vancomycin], the MIC50 in experiment [6] (Enterococcus faecium) and in experiment [5] (Staphylococcus aureus) was 1 µg/mL (≈ 0.69 µM) throughout. For the same compound, the MIC90 in experiment [6] (Enterococcus faecium) was more than 32 µg/mL; in experiment [6] (Enterococcus faecium (n = 104)) it was more than 32 µg/mL; in experiment [5] (Staphylococcus aureus) it was 1 µg/mL (≈ 0.69 µM). Also, the “% R (isolates resistant)” value in experiment [6] (Enterococcus faecium (n = 104)) was found to be 47.1%; in experiment [5] (setting [9]) it was 0%. Besides, the MIC in experiment [6] (Enterococcus faecium, read-out: Mode (MIC)) is more than 32 µg/mL; in experiment [5] (Staphylococcus aureus, read-out: Mode (MIC)) it was 1 µg/mL (≈ 0.69 µM). Moreover, in experiment [5] (setting [9]), the MIC range is 0.5 to 2 µg/mL.
